Test results taken from patent US10420831B2, “Inactivation of viruses by delipidation” (priority 2016, dated 2019).
Like-named read-outs stand apart in the source and are kept apart here.

Key:
[1] = system: human influenza virus H1N1 A/WSN/33 strain; test: Hemagglutination (HA) activity of treated IFV with chicken red blood cells
Method: Hemagglutination (HA) activity is determined as follows. Freshly isolated chicken blood is washed three times with PBS, and the red blood cells (RBC) are resuspended in PBS at a concentration of 1%. Virus dilutions (50 μL) are made in PBS and mixed with 50 μL of the RBC suspension. The mixture is added to individual wells in a 96-well plate and the RBC are allowed to settle for 45 minutes. The wells are judged to be HA negative (i.e. no agglutination of RBC) if a dot or pellet of RBC is present, and a well is judged to be positive if a smooth suspension of RBC is present.
In addition to MBCD, another lipid solvent, diisopropyl ether (DIPE) is used to delipidate IFV. […] After a brief centrifugation at 2,000×g for 3 minutes, visible solvent is removed, and the aqueous materials are left to dry in a fume hood for 20 minutes. The samples are then centrifuged at 200,000×g for 30 minutes to recover virus particles.

[2] = system: human influenza virus H1N1 A/WSN/33 strain; type: cell-based

**Q.** For `CC(C)OC(C)C` [DIPE, diisopropyl ether], which HA units ([1]; 2% DIPE, 37° C., 30 minutes) is on record?
**A.** 32 HA units

**Q.** And the HA units ([1]; 4% DIPE, 37° C., 30 minutes)?
**A.** 32 HA units

**Q.** And the HA units ([1]; 8% DIPE, 37° C., 30 minutes)?
**A.** 32 HA units

**Q.** And the “effect on HA activity (in words)” value ([1]; 10% DIPE, 30 minutes)?
**A.** measurably reduced

**Q.** And the HA units ([1]; 10% DIPE, end-over-end rotation at 37° C. for 30 minutes)?
**A.** 16 HA units

**Q.** What about the HA units ([1]; 12% DIPE, 37° C., 30 minutes) of the same compound?
**A.** 16 HA units

**Q.** What about the “IFV infectivity reduced, compared to the mock-treatment” value ([2]; 12% DIPE, 37° C., 30 minutes, […]) of the same compound?
**A.** 32 fold

**Q.** What about the PFU/mL ([2]; IFV, 2% DIPE, 37° C., 30 minutes) of the same compound?
**A.** 1.2 × 10^8 PFU/mL

**Q.** And the PFU/mL ([2]; IFV, 4% DIPE, 37° C., 30 minutes)?
**A.** 1.4 × 10^8 PFU/mL

**Q.** What about the PFU/mL ([2]; IFV, 8% DIPE, 37° C., 30 minutes) of the same compound?
**A.** 9.0 × 10^7 PFU/mL

**Q.** And the “decrease in infectivity in vitro” value ([2]; IFV, 10% DIPE, 30 minute treatment)?
**A.** ~120 fold

**Q.** And the PFU/mL ([2]; IFV, 10% DIPE, end-over-end rotation at 37° C. for 30 minutes)?
**A.** 1.0 × 10^5 PFU/mL

**Q.** What about the PFU/mL ([2]; IFV, 12% DIPE, 37° C., 30 minutes) of the same compound?
**A.** 2.8 × 10^7 PFU/mL
